Data published in article PMC10269561, “Absence of Clinically Meaningful Drug-Drug Interactions with Rezafungin: Outcome of Investigations” (Microbiology Spectrum, 2023).
Like-named read-outs stand apart in the source and are kept apart here.

Conditions: for AUC0–t, geometric LSM value, + rezafungin / AUC0–∞, geometric LSM value, + rezafungin / Cmax, geometric LSM value, + rezafungin / AUC0–t, geometric LSM value, alone / AUC0–∞, geometric LSM value, alone / Cmax, geometric LSM value, alone: Study 1, healthy subjects, plasma, LC-MS/MS, NCA; for Change in exposure of the oral probe drug on coadministration of i.v. rezafungin vs dosing alone: 90% CIs of GMRs of Cmax, AUC0–t, AUC0–∞ within 80 to […]; for Observation, Cmax (change with rezafungin relative to drug alone) / Observation, AUC (change with rezafungin relative to drug alone): class symbol; for Observation, AUC (change with rezafungin relative to drug alone): AUC0–t and AUC0–∞ unless otherwise noted; for AUC0–t, geometric mean ratio (drug + rezafungin / drug alone) / AUC0–∞, geometric mean ratio (drug + rezafungin / drug alone) / Cmax, geometric mean ratio (drug + rezafungin / drug alone): geometric LSM ratio x 100, ANOVA
Experimental: Both were phase 1, single-center, open-label, crossover inpatient studies that were conducted in the United States in healthy adults (study 1, aged 26 to 55 years; study 2, aged 21 to 59 years). The studies were compliant with the International Council for Harmonisation of Technical Requirements for Pharmaceuticals for Human Use E6 guideline for good clinical practice ([54]) and the Declaration of Helsinki. The study protocols were approved by the institutional review board associated with the study site, and all subjects provided written informed consent.
After screening, subjects were admitted to the clinical research unit (CRU) prior to the first dose of rezafungin (from day −22) and were discharged from the CRU on day 22. Nine oral substrate drugs were administered as part of a cocktail containing two or more drugs once before and once after receiving rezafungin on a schedule designed to allow the washout of the drugs in the cocktail between doses and limit interactions with other drugs (Fig. 4A). […] A loading dose of rezafungin for injection (600 mg) was administered over 1 h on day 1, followed by two once-weekly 400-mg doses over 1 h on days 10 and 15. Due to a short delay in the availability of the investigation study drug, the second once-weekly dose of rezafungin and the second set of oral substrate drugs were administered on day 10 instead of day 8, although the time between doses remained sufficient for all originally planned PK samplings through 96 h postdose and for the adequate washout of the substrate drugs. The total duration of treatment was up to 89 days, including 45 days of screening and 44 days of treatment in the CRU.
In study 1, predose PK blood samples were collected on each dosing day ≤60 min prior to the administration of the substrate drugs with or without rezafungin. Multiple blood samples were collected relative to each dose, with collection times ranging from 15 min to 168 h postdose, depending on the PK profile of each probe substrate drug (Table S5). For study 2, multiple blood samples were collected, and the timing of collection varied according to the PK profile of each coadministered drug from predose to 96 h postdose (Table S6). PK blood samples were collected for rezafungin at sample times ranging from predose to 168 h postdose.
For both studies, validated liquid chromatography-tandem mass spectrometry (LC-MS/MS) methods were used for PK assessments to analyze the concentrations of rezafungin and coadministered drugs. All plasma concentrations and actual blood sampling times were subjected to noncompartmental PK analysis. PK parameter calculations were performed using noncompartmental analysis (NCA) (Phoenix WinNonlin version 8.0 or higher). The PK parameters analyzed included Cmax; the time to reach the maximum observed plasma concentration (Tmax); AUC0–t (using the log-linear trapezoidal rule, where t was the last time point with a measurable concentration); AUC0–∞ (calculated as AUC0–t + Clast/λz); the AUC from 0 to 168 h (AUC0–168); the percentage of AUC0–∞ extrapolated (AUC%Extrap); the terminal elimination rate constant, determined by linear regression of the terminal linear segment of the log concentration-versus-time curve (λz); and the elimination half-life (t1/2), calculated as ln(2)/λz.
The primary analysis of the drug interaction effect on substrate drugs following rezafungin administration was assessed by the ratio of the geometric least-squares (LS) mean of each substrate drug administered with rezafungin to that without rezafungin. […] PK parameters were statistically analyzed using an analysis of variance (ANOVA) model. […] However, noncompliance with these no-effect boundaries was not considered evidence of a significant DDI. Statistical analyses were performed using SAS (version 9.4) and the mixed procedure. Adverse events were descriptively summarized.

[1] = oral metformin 500 mg, pitavastatin 2 mg (day 10) or caffeine 100 mg, efavirenz 50 mg, midazolam 2 mg, digoxin 0.25 mg (day 15) with i.v. rezafungin 400 mg
[2] = oral repaglinide 1 mg, metformin 500 mg, pitavastatin 2 mg, caffeine 100 mg, efavirenz 50 mg, midazolam 2 mg or digoxin 0.25 mg without rezafungin
[3] = Study 1, rezafungin 400 mg i.v. (day 10 or 15)
[4] = oral repaglinide 1 mg with i.v. rezafungin 600 mg (day 1)
[5] = Study 1, from geometric mean ratio
[6] = Study 1, rezafungin 600 mg i.v.
[7] = oral rosuvastatin 5 mg with i.v. rezafungin 400 mg (day 10)
[8] = oral tacrolimus 5 mg or rosuvastatin 5 mg without rezafungin

SMILES | AUC0–t, geometric LSM value, + rezafungin [1] | AUC0–∞, geometric LSM value, + rezafungin [1] | Cmax, geometric LSM value, + rezafungin [1] | AUC0–t, geometric LSM value, alone [2] | AUC0–∞, geometric LSM value, alone [2] | Cmax, geometric LSM value, alone [2] | Change in exposure of the oral probe drug on coadministration of i.v. rezafungin vs dosing alone (Study 1) | Observation, Cmax (change with rezafungin relative to drug alone) (Study 1) | Observation, AUC (change with rezafungin relative to drug alone) (Study 1) | AUC0–t, geometric mean ratio (drug + rezafungin / drug alone) [3] [%] | AUC0–∞, geometric mean ratio (drug + rezafungin / drug alone) [3] [%] | Cmax, geometric mean ratio (drug + rezafungin / drug alone) [3] [%] | other results
Cn1c(=O)c2c(ncn2C)n(C)c1=O [Caffeine] | 18,475.36 ng · h/mL | 20,853.11 ng · h/mL | 2,232.88 ng/mL | 17,230.22 ng · h/mL | 18,897.70 ng · h/mL | 2,075.44 ng/mL | did not result in statistically significant changes | ↔ (no change (the ratio of the PK parameter value varied by up to ~10%, and the 90% CI was within 80 to 125%)) | ↔ (no change (the ratio of the PK parameter value varied by up to ~10%, and the 90% CI was within 80 to 125%)) | 107.23 | 110.35 | 107.59 | 
C[C@H]1O[C@@H](O[C@H]2[C@@H](O)C[C@H](O[C@H]3[C@@H](O)C[C@H](O[C@H]4CC[C@@]5(C)[C@H](CC[C@@H]6[C@@H]5C[C@@H](O)[C@]5(C)[C@@H](C7=CC(=O)OC7)CC[C@]65O)C4)O[C@@H]3C)O[C@@H]2C)C[C@H](O)[C@@H]1O [Digoxin] |  |  |  |  |  |  | did not result in statistically significant changes |  |  |  |  |  | 
O=C1Nc2ccc(Cl)cc2[C@@](C#CC2CC2)(C(F)(F)F)O1 [Efavirenz] | 7,698.46 ng · h/mL | 16,156.14 ng · h/mL | 300.17 ng/mL | 7,557.26 ng · h/mL | 14,368.15 ng · h/mL | 299.30 ng/mL | did not result in statistically significant changes | ↔ (no change (the ratio of the PK parameter value varied by up to ~10%, and the 90% CI was within 80 to 125%)) | ↔ (no change (the ratio of the PK parameter value varied by up to ~10%, and the 90% CI was within 80 to 125%)) | 101.87 | 112.44 | 100.29 | 
CN(C)C(=N)N=C(N)N [Metformin] | 7,257.55 ng · h/mL | 7,373.31 ng · h/mL | 1,115.98 ng/mL | 7,333.63 ng · h/mL | 7,446.67 ng · h/mL | 1,074.27 ng/mL | did not result in statistically significant changes | ↔ (no change (the ratio of the PK parameter value varied by up to ~10%, and the 90% CI was within 80 to 125%)) | ↔ (no change (the ratio of the PK parameter value varied by up to ~10%, and the 90% CI was within 80 to 125%)) | 98.96 | 99.02 | 103.88 | 
Cc1ncc2n1-c1ccc(Cl)cc1C(c1ccccc1F)=NC2 [Midazolam] | 21.62 ng·h/mL | 23.67 ng·h/mL | 8.70 ng/mL | 21.39 ng·h/mL | 23.25 ng·h/mL | 9.00 ng/mL | did not result in statistically significant changes | ↔ (no change (the ratio of the PK parameter value varied by up to ~10%, and the 90% CI was within 80 to 125%)) | ↔ (no change (the ratio of the PK parameter value varied by up to ~10%, and the 90% CI was within 80 to 125%)) | 101.06 | 101.78 | 96.73 | 
O=C(O)C[C@H](O)C[C@H](O)/C=C/c1c(C2CC2)nc2ccccc2c1-c1ccc(F)cc1 [Pitavastatin] | 81.54 ng·h/mL | 90.87 ng·h/mL | 35.72 ng/mL | 77.44 ng·h/mL | 85.78 ng·h/mL | 36.23 ng/mL | did not result in statistically significant changes | ↔ (no change (the ratio of the PK parameter value varied by up to ~10%, and the 90% CI was within 80 to 125%)) | ↔ (no change (the ratio of the PK parameter value varied by up to ~10%, and the 90% CI was within 80 to 125%)) | 105.30 | 105.93 | 98.59 | 
CCOc1cc(CC(=O)N[C@@H](CC(C)C)c2ccccc2N2CCCCC2)ccc1C(=O)O [Repaglinide] |  |  |  | 20.25 ng·h/mL | 21.74 ng·h/mL | 11.86 ng/mL |  | ↔ (no change (the ratio of the PK parameter value varied by up to ~10%, and the 90% CI was within 80 to 125%)) |  |  |  |  | AUC0–t, geometric LSM value, + rezafungin [4]: 23.47 ng·h/mL; AUC0–∞, geometric LSM value, + rezafungin [4]: 25.16 ng·h/mL; Cmax, geometric LSM value, + rezafungin [4]: 12.13 ng/mL; Magnitude of increase in AUC0–∞ with rezafungin vs drug alone [5]: ~16%; AUC0–t, geometric mean ratio (drug + rezafungin / drug alone) [6]: 115.87%; AUC0–∞, geometric mean ratio (drug + rezafungin / drug alone) [6]: 115.75%; Cmax, geometric mean ratio (drug + rezafungin / drug alone) [6]: 102.26%
CC(C)c1nc(N(C)S(C)(=O)=O)nc(-c2ccc(F)cc2)c1/C=C/[C@@H](O)C[C@@H](O)CC(=O)O [Rosuvastatin] |  |  |  |  |  |  |  |  |  | 115.13 | 113.55 | 111.82 | AUC0–t, geometric LSM value, + rezafungin [7]: 31,027.38 pg · h/mL; AUC0–∞, geometric LSM value, + rezafungin [7]: 32,386.11 pg · h/mL; Cmax, geometric LSM value, + rezafungin [7]: 3,683.66 pg/mL; AUC0–t, geometric LSM value, alone [8]: 26,949.43 pg · h/mL; AUC0–∞, geometric LSM value, alone [8]: 28,521.34 pg · h/mL; Cmax, geometric LSM value, alone [8]: 3,294.35 pg/mL; Magnitude of increase in AUC with rezafungin vs drug alone (Study 1, AUC0–t and AUC0–∞, from geometric mean ratio): ~15%; Magnitude of increase in AUC0–∞ with rezafungin vs drug alone [5]: approximately 14%; Magnitude of increase in Cmax with rezafungin vs drug alone [5]: ~12%
